Measured values: EP0542371A1, “Saccharin derivative proteolytic enzyme inhibitors” (STERLING WINTHROP INC., priority 1991, dated 1993)

How the values were obtained:
human leukocyte elastase = target: T1, human leukocyte elastase (Homo sapiens, UniProt P08246); test: Inhibition of human leukocyte elastase, in vitro (Ki* = koff/kon); type: biochemical; settings: Ki* = koff/kon (rate of reactivation divided by rate of inactivation of the enzyme); calculated from measured koff and kon
T1 sequence (P08246 30-267): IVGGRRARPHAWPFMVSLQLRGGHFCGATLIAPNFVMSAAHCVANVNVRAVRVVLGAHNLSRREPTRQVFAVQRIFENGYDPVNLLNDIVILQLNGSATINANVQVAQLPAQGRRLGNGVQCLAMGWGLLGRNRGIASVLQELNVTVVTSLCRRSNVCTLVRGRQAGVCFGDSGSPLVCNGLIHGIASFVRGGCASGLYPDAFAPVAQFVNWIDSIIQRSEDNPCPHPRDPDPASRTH
Procedure: Ki*, which is defined as the rate of reactivation of the enzyme divided by the rate of inactivation of the enzyme (koff/on), was therefore determined instead. The values of koff and kon were measured and Ki* was then calculated.
The value of kon was determined by measuring the enzyme activity of an aliquot of the enzyme as a function of the time after addition of the test compound (inhibitor). […] The value of kon was then obtained by the equation kon = kobs[I] wherein [I] is the concentration of the inhibitor. The value of koff was similarly determined, and Ki* was then obtained by the equation Ki* = koff/kon.

[1] = pKa determination by titration in water; type: physicochemical
[2] = pKa by ultraviolet spectrophotometric determination in water; type: physicochemical

Ki (human leukocyte elastase) [nM] | pKa [1] | pKa [2] | SMILES
0.014 |  |  | COc1cc(C(C)C)c2c(c1)S(=O)(=O)N(COC(=O)c1c(Cl)ccc(OCCN3CCOCC3)c1Cl)C2=O [Example 2, 2-{2,6-dichloro-3-[2-(4-morpholinylethoxy)]benzoyloxymethyl}-4-isopropyl-6-methoxysaccharin]
0.024 |  |  | COc1cc(C(C)C)c2c(c1)S(=O)(=O)N(Cn1nnc(S(=O)(=O)C(C)(C)C)c1S(=O)(=O)C(C)(C)C)C2=O [Example 1, 2-[4,5-di(t-butylsulfonyl)-1,2,3-triazol-1-yl]methyl-4-isopropyl-6-methoxysaccharin]
 | 1.6 |  | N#Cc1nn[nH]c1C#N [1,2,3-triazole-4,5-dinitrile]
 | 4.4 |  | COC(=O)c1nn[nH]c1C(=O)OC [1,2,3-triazole-4,5-dicarboxylic acid dimethyl ester]
 |  | 5.3 | NC(=O)c1nn[nH]c1C(N)=O [1,2,3-triazole-4,5-dicarboxamide]
 |  | 2.9 | Sc1nnnn1-c1ccccc1 [1-phenyltetrazole-5-thiol]
